Laboratory results taken from article PMC8071314, “Computational Design and Development of Benzodioxane-Benzamides as Potent Inhibitors of FtsZ by Exploring the Hydrophobic Subpocket” (Antibiotics, 2021).
In brackets after ≈: the same amount, converted by molar mass.

Experiments:
[1] = system: B. subtilis strain WM5126; assay: Spot viability assay on LB plates; type: cell-based; details: Bacillus subtilis, spotted on LB plates with 0, 0.03, 0.06, 0.1 or 1 µg/mL compound
Protocol: The promising properties of these new compounds prompted us to test them on B. subtilis, a model Gram-positive species used previously in evaluating other benzamides, such as 8j, the benzothiazole derivative of PC190723 [28]. We chose derivatives 1, 5, and 8, which had the lowest MICs on S. aureus and because they were representative of different substituents on the benzodioxane scaffold. B. subtilis strain WM5126 was grown until early log phase, and then 1 × and 10 × dilutions of the culture were spotted onto LB plates containing 0, 0.03, 0.06, 0.1, or 1 µg/mL final concentration of the compounds.
The two B. subtilis strains used were WM3612 (JH642 amyE::Pxyl-gfp-gp56), described in Bhambani et al., and WM5126 (JH642 amyE::Pxyl-gfp-zapA), which is the same as strain FG347 [29]. For spot viability assays on plates, compounds were diluted from DMSO stocks into molten LB agar as described above and mixed well before solidifying. WM3612 cultures were grown to early exponential phase in LB broth at 37 °C, then spotted directly or after 1:10 dilution into LB onto LB plates containing various concentrations of compounds. After allowing spots to air dry, plates were then incubated overnight at 34 °C and photographed.

[2] = system: MDRSA 11.7; assay: MIC on multidrug resistant clinical S. aureus strain MDRSA 11.7 (EUCAST/CLSI); type: cell-based; details: Staphylococcus aureus
Protocol: (§1) We tested 1–8 for their antimicrobial activity on different S. aureus strains (Table 2).
(§2) The antibacterial activities on MDRSA 11.7 and MDRSA 12.1 were performed following the European Committee on Antimicrobial Susceptibility Testing (EUCAST) recommendations and Clinical and Laboratory Standards Institute (CLSI) guidelines, as detailed before. Tetracycline was used as a positive control on every assay plate.

[3] = system: MDRSA 12.1; assay: MIC on multidrug resistant clinical S. aureus strain MDRSA 12.1 (EUCAST/CLSI); type: cell-based, Staphylococcus aureus; details: for MIC: Staphylococcus aureus, MDRSA 12.1
Protocol: as §1, §2

[4] = system: MRC-5 cells; assay: MTT cytotoxicity assay on MRC-5 cells; type: cell-based, human; details: concentration reducing viability of MRC-5 cells by 90%, 24 h incubation
Protocol: (§3) We first determined the minimal inhibitory concentration (MIC), i.e., the lowest compound dose (µM) arresting bacterial growth, and the minimal bactericidal concentration (MBC), i.e., the minimal dose (µM) of the compound required for an irreversible block, even after drug removal. Secondly, the derivatives having the most promising activities vs. MRSA were also tested on human MRC-5 cells, calculating their percentages of cytotoxicity by using the MTT assay. Cells were first incubated with each compound for 24 h, then the derivative was removed, and the cells were overlaid with MTT for an additional 3 h. After that time, DMSO replaced the MTT solution, and after 10 min the absorbance was measured at 570 nm. The percentage of cytotoxicity was defined by the formula [100 − (sample OD/untreated cells OD) × 100]. Table 2 reports TD90, defined as the compound concentration (µM) that reduced viability of MRC-5 cells by 90%. Moreover, we reported the therapeutic index (TI), as TD90 and MBC ratio.
Compounds showing an antibacterial activity at a concentration lower than 10 μg/mL were serially diluted in DMEM and tested for cytotoxicity on MRC-5 cells by the MTT assay (Sigma, St Louis, MO, USA). Protocol was the same previously reported.

[5] = system: MSSA ATCC 29213 and MRSA ATCC 43300; assay: MIC and MBC on methicillin-sensitive and methicillin-resistant S. aureus; type: cell-based, Staphylococcus aureus; details: for fold more potent than inferior (methylenoxy) homolog: MRSA and MSSA, 1 vs VI, 2 vs VII, 3 vs V, 5 vs 4, 8 vs 7; for MIC / MBC: Staphylococcus aureus, MSSA ATCC 29213 and MRSA ATCC 43300; for MIC: lowest dose arresting bacterial growth; for MBC: minimal dose for irreversible block
Protocol: as §3
The antibacterial activity was tested on both a methicillin-sensitive and a methicillin-resistant S. aureus strain, dissolving all the compounds in dimethyl sulfoxide (DMSO) and using fresh cell cultures at 10^5 cells/mL, in a final volume of 2 mL. The detailed protocol is identical to what was previously reported. Every assay was performed in quadruplicate, and for each series of experiments, both positive (no compounds) and negative (no bacteria) controls were included.

[6] = system: B. subtilis FtsZ rings (strain WM5126, GFP-ZapA); assay: Fluorescence microscopy of GFP-ZapA (Z ring) localization; type: cell-based, Bacillus subtilis; details: 1 h exposure
Protocol: (yellow arrows in Figure 5 highlight normal sharp bands at the future division sits). On the contrary, in cells treated with compounds 7 and 8, we observed GFP-ZapA forming many (0.4 µg/mL 7) or nearly all (0.8 µg/mL 7 or 0.4 µg/mL 8) foci or focal clusters (white arrows in Figure 5), and abnormal cell elongation is clearly evident. The perturbation of Z rings and cell elongation is similar to the previously described effects of 8j.
For fluorescence microscopy, overnight cultures of WM5126 were grown at […] (after 1:200 dilution of overnight and addition of 0.1% xylose to induce expression of GFP-ZapA) for ~2 h until reaching an OD600 of ~0.2, then treated with no drug or with compounds 7 or 8 diluted in water from stock solutions of 40 mg/mL (8) or 27 mg/mL (7) in DMSO. Those dilutions (40 µg/mL in water) were then added at 1:100 or 1:50 to the cultures and grown for 1 h shaking at 33 °C prior to spotting on a thin layer of 1% agarose in phosphate buffered saline. Cells were imaged with differential interference contrast (DIC) and fluorescence using an Olympus BX100 fitted with a 100 × Plan Apochromat objective (N.A. 1.4) and a GFP filter set (Chroma). Images were acquired with CellSens software (Olympus) and DIC, and fluorescent images of the same field were overlaid using ImageJ [31].
Figure 5 Effect of compounds 7 and 8 on B. subtilis Z rings. B. subtilis strain WM5126 was induced with 0.1% xylose to express GFP-ZapA, then exposed to compounds 7 or 8 for 1 h during exponential growth at 37 °C prior to imaging by DIC and fluorescence. Yellow arrows indicate normal sharp rings at the future division site, while white arrows indicate abnormal foci or clusters. Scale bar, 5 µm.

[7] = system: MSSA ATCC29213; set-up: method as in PMID 25462242, PMID 27191617, PMID 31750973, PMID 28586174, PMID 32260339; details: Figure 1; cited from earlier work

Structure (SMILES)	MIC [1] [µg/mL]	MIC [2] [µM]	MIC [3] [µM]	TD90 [4] [µM]	fold more potent than inferior (methylenoxy) homolog [5]	MIC [5] [µM]	MBC [5] [µM]	times more active than inferior homolog ([3]; MDRSA, 3 vs V)	GFP-ZapA forming foci or focal clusters ([6]; 0.4 µg/mL)	GFP-ZapA forming foci or focal clusters ([6]; 0.8 µg/mL)	melting point [°C]	MIC [7] [µM]
Cc1nc(-c2ccc3c(c2)OC(CCOc2ccc(F)c(C(N)=O)c2F)CO3)no1 (stereo not drawn) [Compound 1, 3-[2-(7-(5-methyl-1,2,4-oxadiazol-3-yl)-1,4-benzodioxan-2-yl)ethyloxy]-2,6-difluorobenzamide]	0.1 to 1 (≈ 0.24 to 2.4 µM)	1.2 (≈ 0.501 µg/mL)	1.2 (≈ 0.501 µg/mL)	>1910	5 fold	1.2 (≈ 0.501 µg/mL)	1.2 (≈ 0.501 µg/mL)	–	–	–	–	–
CCc1nc(-c2ccc3c(c2)OC(CCOc2ccc(F)c(C(N)=O)c2F)CO3)no1 (stereo not drawn) [Compound 2]	–	0.6 (≈ 0.259 µg/mL)	0.6 (≈ 0.259 µg/mL)	1854	10 fold	0.6 (≈ 0.259 µg/mL)	0.6 (≈ 0.259 µg/mL)	–	–	–	–	–
CSc1nc(-c2ccc3c(c2)OC(CCOc2ccc(F)c(C(N)=O)c2F)CO3)no1 (stereo not drawn) [Compound 3, 3-[2-(7-(5-methylthio-1,2,4-oxadiazol-3-yl)-1,4-benzodioxan-2-yl)ethyloxy]-2,6-difluorobenzamide]	–	1.1 (≈ 0.494 µg/mL)	1.1 (≈ 0.494 µg/mL)	1668	three	0.5 (≈ 0.225 µg/mL)	0.5 (≈ 0.225 µg/mL)	two	–	–	–	–
NC(=O)c1c(F)ccc(OCC2COc3cc4ccccc4cc3O2)c1F (stereo not drawn) [Compound 4, 3-[(2,3-dihydronaphtho[2,3-b][1,4]dioxin-2-yl)methoxy]-2,6-difluorobenzamide]	–	11.4 (≈ 4.23 µg/mL)	11.4 (≈ 4.23 µg/mL)	>2276	–	7.1 (≈ 2.64 µg/mL)	7.1 (≈ 2.64 µg/mL)	–	–	–	–	–
NC(=O)c1c(F)ccc(OCCC2COc3cc4ccccc4cc3O2)c1F (stereo not drawn) [Compound 5, 3-[2-(2,3-dihydronaphtho[2,3-b][1,4]dioxin-2-yl)ethoxy]-2,6-difluorobenzamide]	< 0.1	1.3 (≈ 0.501 µg/mL)	0.6 (≈ 0.231 µg/mL)	233	12 fold	0.6 (≈ 0.231 µg/mL)	0.6 (≈ 0.231 µg/mL)	–	–	–	–	–
NC(=O)c1c(F)ccc(OCCCOc2ccc3ccccc3c2)c1F [Compound 6]	–	11.2 (≈ 4 µg/mL)	11.2 (≈ 4 µg/mL)	>2238	–	14 (≈ 5 µg/mL)	14 (≈ 5 µg/mL)	–	–	–	–	–
NC(=O)c1c(F)ccc(OCC2COc3cc4c(cc3O2)CCCC4)c1F (stereo not drawn) [Compound 7]	–	10.7 (≈ 4.02 µg/mL)	5.3 (≈ 1.99 µg/mL)	200	–	13.3 (≈ 4.99 µg/mL)	13.3 (≈ 4.99 µg/mL)	–	many	nearly all	–	–
NC(=O)c1c(F)ccc(OCCC2COc3cc4c(cc3O2)CCCC4)c1F (stereo not drawn) [Compound 8, 3-[2-(2,3,6,7,8,9-hexahydronaphtho[2,3-b][1,4]dioxin-2-yl)ethoxy]-2,6-difluorobenzamide]	< 0.1	0.3 (≈ 0.117 µg/mL)	0.3 (≈ 0.117 µg/mL)	2054	50 fold	0.25 (≈ 0.0973 µg/mL)	0.25 (≈ 0.0973 µg/mL)	–	nearly all	–	166.5	–
NC(=O)c1c(F)ccc(OCc2nc3cc(Cl)ccc3s2)c1F [Compound 8j]	–	–	–	–	–	–	–	–	–	–	–	0.70 (≈ 0.248 µg/mL)
NC(=O)c1c(F)ccc(OCC2COc3ccccc3O2)c1F (stereo not drawn) [I, reference compound]	–	49.8 (≈ 16 µg/mL)	24.9 (≈ 8 µg/mL)	49.8	–	15.6 (≈ 5.01 µg/mL)	249 (≈ 80 µg/mL)	–	–	–	–	15.6 (≈ 5.01 µg/mL)
NC(=O)c1c(F)ccc(OCCC2COc3ccccc3O2)c1F (stereo not drawn) [II, reference compound]	–	11.9 (≈ 3.99 µg/mL)	11.9 (≈ 3.99 µg/mL)	226	–	14.9 (≈ 5 µg/mL)	14.9 (≈ 5 µg/mL)	–	–	–	–	14.9 (≈ 5 µg/mL)
NC(=O)c1c(F)ccc(OCCCC2COc3ccccc3O2)c1F (stereo not drawn) [III]	–	–	–	–	–	–	–	–	–	–	–	28.6 (≈ 9.99 µg/mL)
COC(=O)c1ccc2c(c1)OC(COc1ccc(F)c(C(N)=O)c1F)CO2 (stereo not drawn) [IV]	–	–	–	–	–	–	–	–	–	–	–	1.6 (≈ 0.607 µg/mL)
NC(=O)c1c(F)ccc(OCc2nc3cc(Cl)cnc3s2)c1F [PC190723]	–	–	–	–	–	–	–	–	–	–	–	2.8 (≈ 0.996 µg/mL)
CSc1nc(-c2ccc3c(c2)OC(COc2ccc(F)c(C(N)=O)c2F)CO3)no1 (stereo not drawn) [V, reference compound]	–	< 2.3	< 2.3	1700	–	1.4 (≈ 0.61 µg/mL)	1.4 (≈ 0.61 µg/mL)	–	–	–	–	1.4 (≈ 0.61 µg/mL)
Cc1nc(-c2ccc3c(c2)OC(COc2ccc(F)c(C(N)=O)c2F)CO3)no1 (stereo not drawn) [VI, reference compound]	–	9.9 (≈ 3.99 µg/mL)	5 (≈ 2.02 µg/mL)	>1983	–	6.2 (≈ 2.5 µg/mL)	6.2 (≈ 2.5 µg/mL)	–	–	–	–	6.2 (≈ 2.5 µg/mL)
CCc1nc(-c2ccc3c(c2)OC(COc2ccc(F)c(C(N)=O)c2F)CO3)no1 (stereo not drawn) [VII, reference compound]	–	9.6 (≈ 4.01 µg/mL)	4.8 (≈ 2 µg/mL)	>1916	–	6 (≈ 2.5 µg/mL)	6 (≈ 2.5 µg/mL)	–	–	–	–	6.0 (≈ 2.5 µg/mL)
